# Test results published in patent publication US10238631B2, “Sesquiterpene derivatives and their use in inflammation or cancer treatment” (Academia Sinica, priority 2014, dated 2019).
# Tested on: TS/A (ER+, Her2−) murine mammary cancer cells
# Assay: MTT cell viability assay, TS/A cells
# Assay type: cell-based
# Conditions: Mus musculus, 24 h, read-out: IC50 on cell viability, TS/A (ER+, Her2−)
# Outline: (§1)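 Cells were seeded at 2×10^3 to 1×10^4 per well overnight, then exposed to compounds for 24 h to 72 h. Viability was read by MTT at OD570 as a percentage of the 0.5% DMSO vehicle control.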
row,Compound,IC50 [µM]
1,C=C1C(=O)OC2CC3=C[C@@H](C/C(C)=C/C(OC(=O)c4cccs4)[C@H]12)OC3=O (some centres unmarked) [DETD-30],2.4
2,C=C1C(=O)OC2CC3=C[C@@H](C/C(C)=C/C(OC(=O)[C@@H](C)c4ccc5cc(OC)ccc5c4)[C@H]12)OC3=O (some centres unmarked) [DETD-53],4.1

# Tested on: MDA-MB-231 (ER−, PR−, Her2−) human breast cancer cells
# Assay: MTT cell viability assay, MDA-MB-231 cells
# Assay type: cell-based
# Conditions: Homo sapiens, MDA-MB-231, 24 h, read-out: IC50 on cell viability, MDA-MB-231 (ER−, PR−, Her2−)
# Outline: as §1
row,Compound,IC50 [µM]
1,C=C1C(=O)OC2CC3=C[C@@H](C/C(C)=C/C(OC(=O)c4cccs4)[C@H]12)OC3=O (some centres unmarked) [DETD-30],4.3
2,C=C1C(=O)OC2CC3=C[C@@H](C/C(C)=C/C(OC(=O)[C@@H](C)c4ccc5cc(OC)ccc5c4)[C@H]12)OC3=O (some centres unmarked) [DETD-53],3.8

# Tested on: MCF-7 (ER+, Her2−) human breast cancer cells
# Assay: MTT cell viability assay, MCF-7 cells
# Assay type: cell-based
# Conditions: MCF7, 24 h, read-out: IC50 on cell viability, MCF-7 (ER+, Her2−)
# Outline: as §1
row,Compound,IC50 [µM]
1,C=C1C(=O)OC2CC3=C[C@@H](C/C(C)=C/C(OC(=O)c4cccs4)[C@H]12)OC3=O (some centres unmarked) [DETD-30],3.7
2,C=C1C(=O)OC2CC3=C[C@@H](C/C(C)=C/C(OC(=O)[C@@H](C)c4ccc5cc(OC)ccc5c4)[C@H]12)OC3=O (some centres unmarked) [DETD-53],4.1

# Tested on: M10 normal mammary epithelial cells
# Assay: MTT cell viability assay, M10 normal cells
# Assay type: cell-based, human
# Conditions: Homo sapiens, Epithelial cell, 24 h
# Outline: as §1
row,Compound,IC50 [µM]
1,C=C1C(=O)OC2CC3=C[C@@H](C/C(C)=C/C(OC(=O)c4cccs4)[C@H]12)OC3=O (some centres unmarked) [DETD-30],> 7.5
2,C=C1C(=O)OC2CC3=C[C@@H](C/C(C)=C/C(OC(=O)[C@@H](C)c4ccc5cc(OC)ccc5c4)[C@H]12)OC3=O (some centres unmarked) [DETD-53],4.8

# Tested on: B16-F10 (NRAS mutation)
# Assay: MTT cell viability assay, B16-F10 melanoma
# Assay type: cell-based
# Conditions: Mus musculus, B16-F10, 24 h, 24 h, read-out: IC50 on cell viability, B16-F10 (NRAS mutation)
# Outline: (§2)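 Cells (2×10^3 to 1×10^4/well) seeded overnight, then exposed to compounds for 24 h to 72 h. Growth read by MTT colorimetry at OD570. Viability expressed as % of vehicle (0.5% DMSO) control.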
row,Compound,IC50 [µM]
1,C=C1C(=O)OC2CC3=C[C@@H](C/C(C)=C/C(OC(=O)c4cccs4)[C@H]12)OC3=O (some centres unmarked) [DETD-30],2.5
2,C=C1C(=O)OC2CC3=C[C@@H](C/C(C)=C/C(OC(=O)[C@@H](C)c4ccc5cc(OC)ccc5c4)[C@H]12)OC3=O (some centres unmarked) [DETD-53],5.2

# Tested on: MeWo (No NRAS or BRAF mutation)
# Assay: MTT cell viability assay, MeWo melanoma
# Assay type: cell-based, human
# Conditions: Homo sapiens, MeWo, 24 h
# Outline: as §2
row,Compound,IC50 [µM]
1,C=C1C(=O)OC2CC3=C[C@@H](C/C(C)=C/C(OC(=O)c4cccs4)[C@H]12)OC3=O (some centres unmarked) [DETD-30],9.1
2,C=C1C(=O)OC2CC3=C[C@@H](C/C(C)=C/C(OC(=O)[C@@H](C)c4ccc5cc(OC)ccc5c4)[C@H]12)OC3=O (some centres unmarked) [DETD-53],6

# Tested on: HTB-68 (NRAS mutation)
# Assay: MTT cell viability assay, HTB-68 melanoma
# Assay type: cell-based, human
# Conditions: Homo sapiens, 24 h
# Outline: as §2
row,Compound,IC50 [µM]
1,C=C1C(=O)OC2CC3=C[C@@H](C/C(C)=C/C(OC(=O)c4cccs4)[C@H]12)OC3=O (some centres unmarked) [DETD-30],7.6
2,C=C1C(=O)OC2CC3=C[C@@H](C/C(C)=C/C(OC(=O)[C@@H](C)c4ccc5cc(OC)ccc5c4)[C@H]12)OC3=O (some centres unmarked) [DETD-53],5

# Tested on: A2058 (BRAF mutation)
# Assay: MTT cell viability assay, A2058 melanoma
# Assay type: cell-based, human
# Conditions: Homo sapiens, A2058, 24 h
# Outline: as §2
row,Compound,IC50 [µM]
1,C=C1C(=O)OC2CC3=C[C@@H](C/C(C)=C/C(OC(=O)c4cccs4)[C@H]12)OC3=O (some centres unmarked) [DETD-30],5.2
2,C=C1C(=O)OC2CC3=C[C@@H](C/C(C)=C/C(OC(=O)[C@@H](C)c4ccc5cc(OC)ccc5c4)[C@H]12)OC3=O (some centres unmarked) [DETD-53],5.5

# Tested on: A375 (BRAF mutation)
# Assay: MTT cell viability assay, A375 melanoma
# Assay type: cell-based, human
# Conditions: Homo sapiens, A-375, 24 h, 24 h, MTT; read-out: IC50 on cell viability, A375 (BRAF mutation)
# Outline: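 A375 cells were seeded at 2×10^3 to 1×10^4 per well overnight and then exposed to compounds for 24 h to 72 h. Viability was measured by MTT absorbance at OD570 relative to 0.5% DMSO vehicle (100%), and IC50 was derived from it. Combination with PLX4032 was scored by combination index.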
row,Compound,IC50 [µM]
1,C=C1C(=O)OC2CC3=C[C@@H](C/C(C)=C/C(OC(=O)c4cccs4)[C@H]12)OC3=O (some centres unmarked) [DETD-30],3.4
2,C=C1C(=O)OC2CC3=C[C@@H](C/C(C)=C/C(OC(=O)[C@@H](C)c4ccc5cc(OC)ccc5c4)[C@H]12)OC3=O (some centres unmarked) [DETD-53],2.8

# Tested on: Melanocyte (Normal cells)
# Assay: MTT cell viability assay, normal melanocytes
# Assay type: cell-based, human
# Conditions: Homo sapiens, Melanocyte, 24 h
# Outline: as §2
row,Compound,IC50 [µM]
1,C=C1C(=O)OC2CC3=C[C@@H](C/C(C)=C/C(OC(=O)c4cccs4)[C@H]12)OC3=O (some centres unmarked) [DETD-30],> 10
2,C=C1C(=O)OC2CC3=C[C@@H](C/C(C)=C/C(OC(=O)[C@@H](C)c4ccc5cc(OC)ccc5c4)[C@H]12)OC3=O (some centres unmarked) [DETD-53],> 10

# Tested on: RAW264.7 (normal macrophage)
# Assay: MTT cell viability assay, RAW264.7 macrophages
# Assay type: cell-based, mouse
# Conditions: Mus musculus, RAW264.7, 24 h
# Outline: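 RAW264.7 macrophages (2×10^5 cells/well) pretreated with compounds 1 h, then incubated 24 h with or without 100 ng/μL LPS. Viability by MTT colorimetric assay run in parallel with Griess nitrite measurement.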
row,Compound,IC50 [µM]
1,C=C1C(=O)OC2CC3=C[C@@H](C/C(C)=C/C(OC(=O)c4cccs4)[C@H]12)OC3=O (some centres unmarked) [DETD-30],> 10
2,C=C1C(=O)OC2CC3=C[C@@H](C/C(C)=C/C(OC(=O)[C@@H](C)c4ccc5cc(OC)ccc5c4)[C@H]12)OC3=O (some centres unmarked) [DETD-53],> 10

# Tested on: LPS-induced nitric oxide (NO) production in RAW 264.7 cells
# Assay: Nitric oxide production in LPS-stimulated macrophages (Griess)
# Assay type: cell-based, mouse
# Conditions: Mus musculus; LPS-stimulated RAW264.7, nitrite 24 h after LPS
# Outline: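 RAW 264.7 macrophages (2×10^5 cells/well) were pretreated with compound for 1 h and then stimulated with 100 ng/μL LPS for 24 h. NO was measured as nitrite in the medium by the Griess reaction. Viability was checked in parallel by MTT.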
row,Compound,IC50 [µM]
1,C=C1C(=O)OC2CC3=C[C@@H](C/C(C)=C/C(OC(=O)c4cccs4)[C@H]12)OC3=O (some centres unmarked) [DETD-30],1.6
2,C=C1C(=O)OC2CC3=C[C@@H](C/C(C)=C/C(OC(=O)[C@@H](C)c4ccc5cc(OC)ccc5c4)[C@H]12)OC3=O (some centres unmarked) [DETD-53],3.5

# Tested on: melanoma cell lines B16-F10, MeWo, A375, A2058, HTB-68
# Assay: MTT cell viability assay, all melanoma cell lines
# Assay type: cell-based
# Conditions: 24 h, read-out: IC50 values over all types of melanoma cell lines
# Method: Normal or cancer cells (2×10^3 to 1×10^4 cells/well) were seeded in 96-well plate for overnight and treated with different compounds for 24 h to 72 h. Cells growth were determined by MTT-based colorimetric assays according to. Viability of the test cells treated with vehicle (0.5% DMSO) only was defined as 100% viable. Survival of cells after treatment with DETDs was calculated using the following formula: viable cell number (%)=OD570 (treated cell culture)/OD570 (vehicle control)×100.
# Several genes are involved in melanoma development and pathology; specifically, mutation in V-raf murine sarcoma viral oncogene homolog B1 (B-RAF) occurs approximately 50-60% and in neuroblastoma RAS viral oncogene homolog (N-RAS) occurs about 30% of malignant melanomas. A spectrum of wild-type or mutated melanoma cell lines including B16-F10, MeWo, A375, A2058, HTB-68, and melanocyte were used to study anti-melanoma cell proliferation activity of parental phytocompound DET and newly synthesized DETDs.
row,Compound,IC50 [µM]
1,C=C1C(=O)OC2CC3=C[C@@H](C/C(C)=C/C(OC(=O)c4cccs4)[C@H]12)OC3=O (some centres unmarked) [DETD-30],1.6 to 9.9
2,C=C1C(=O)OC2CC3=C[C@@H](C/C(C)=C/C(OC(=O)[C@@H](C)c4ccc5cc(OC)ccc5c4)[C@H]12)OC3=O (some centres unmarked) [DETD-53],1.6 to 9.9
